As a reminder, the IC50 is the point on the concentration scale where inhibition reaches its midpoint.

SMILES strings stand for the structures. Where two headings read alike, the source gives them in different places. Some results are limits rather than exact numbers.

The source of these data is article PMC7766327, “Inhibition of Pneumolysin Cytotoxicity by Hydrolysable Tannins” (Antibiotics, 2020).

Assay [1] concerns the target T1, pneumolysin (Ply) (Streptococcus pneumoniae serotype 2, UniProt Q04IN8).
T1 construct: made in house; host or cells: E. coli BL21(DE3)
Put plainly: cell-based. It counts as cell-based. As to the method:
Native human erythrocytes were taken into EDTA tubes. The erythrocytes were washed three times with PBS (0.15 M NaCl, 2.7 mM KCl, 8.1 mM Na2HPO4 and 1.5 mM KH2PO4) by centrifugation at 700× g for 10 min. The purified erythrocytes were stored at +4 °C. Erythrocytes (1% v/v) in PBS were mixed with 1 nM Ply and dilution series of polyphenol inhibitors in 96-well microtiter plates. The reaction was incubated for 30 min at 37 °C. The plates were centrifuged, and the supernatant was pipetted into flat-bottomed microtiter plates to measure the absorbance at 570 nm (VICTOR X4, PerkinElmer, Turku, Finland) of the released hemoglobin from lysed erythrocytes. The absorbances of triplicate measurements are presented as a function of inhibitor concentration. The IC50 values were calculated with Origin data analysis software (2016, OriginLab Corporation, Northampton, MA, USA).

The target in assay [2] is T1, pneumolysin (Ply). Put plainly: Precipitation assay of pneumolysin-tannin interaction. Format: binding. As to conditions: for Minimum Precipitating Concentration: 10 μM Ply, Na-acetate buffer pH 5.0, 25 °C, 30 min, absorbance 414 nm; for Precipitation Relative Power: fold compared to vescalagin (=1); for Fold higher precipitating concentration compared to hemolysis IC50: minimum precipitating concentration vs hemolysis IC50. On the procedure:
The precipitation assay with tannins was done as described previously with bovine serum albumin [22]. First, 10 μM of Ply and dilution series of polyphenols (5–1000 µM) were incubated in a Na-acetate buffer (200 mM NaCl and 50 mM CH3COONa; pH 5.0) at 25 °C for 30 min with shaking. The reactions were carried out in Multiskan Ascent plate reader (Labsystems, Vantaa, Finland) and the precipitation was measured at 414 nm. The minimum concentration precipitating Ply was calculated with Origin data analysis software (2016, OriginLab Corporation, Northampton, MA, USA).

Setting [3] is: IC50 (screening with hemolysis assays), estimated from the inhibition curves, two-fold dilutions of tannins.
[4] abbreviates: Hemolysis Inhibition IC50, 1 nM Ply, 1% human erythrocytes, 30 min 37 °C, logistic fit.
Where [5] appears, read: classification by IC50 from two-fold dilutions.
The mark [6] stands for this setting: read-out: IC50 (screening with hemolysis assays), estimated from the inhibition curves, two-fold dilutions of tannins.

T1 sequence (Q04IN8 whole entry): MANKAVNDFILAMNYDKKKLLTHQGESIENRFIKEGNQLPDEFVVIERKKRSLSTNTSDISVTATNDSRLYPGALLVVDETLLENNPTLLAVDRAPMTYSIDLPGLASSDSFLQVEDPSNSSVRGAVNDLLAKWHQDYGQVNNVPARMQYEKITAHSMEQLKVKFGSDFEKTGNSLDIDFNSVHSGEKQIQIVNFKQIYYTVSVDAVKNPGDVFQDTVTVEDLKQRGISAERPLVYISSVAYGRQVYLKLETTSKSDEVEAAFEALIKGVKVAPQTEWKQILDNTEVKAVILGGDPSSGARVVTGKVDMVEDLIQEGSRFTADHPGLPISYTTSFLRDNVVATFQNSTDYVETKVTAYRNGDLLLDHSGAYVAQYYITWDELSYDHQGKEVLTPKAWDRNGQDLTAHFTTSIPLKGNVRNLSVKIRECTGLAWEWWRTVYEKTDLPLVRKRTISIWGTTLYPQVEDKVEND

For `O=C(O[C@@H]1O[C@H](CO)[C@@H](O)[C@H](O)[C@H]1O)c1cc(O)c(O)c(O)c1` [1-O-galloyl-β-D-glucose], the IC50 in assay [1] (setting [3]) was greater than 0.1 µM.

As to `O=C(OC1COC(=O)c2cc(O)c(O)c(O)c2-c2c(cc(O)c(O)c2O)C(=O)OC1C1OC(=O)c2cc(O)c(O)c(O)c2-c2c(O)c(O)c(O)c3c2C(=O)OC1C3O)c1cc(O)c(O)c(O)c1` (stereo not shown) [Stachyurin], the IC50 in assay [1] (setting [3]) is greater than 0.1 µM.

For `O=C(O[C@@H]1O[C@@H]2COC(=O)c3cc(O)c(O)c(O)c3-c3c(cc(O)c(O)c3O)C(=O)O[C@H]2[C@H](O)[C@H]1OC(=O)c1cc(O)c(O)c(O)c1)c1cc(O)c(O)c(O)c1` [1,2,-di-O-galloyl-4,6-HHDP-β-D-glucose], in assay [1] (setting [3]), the IC50 is 0.07 µM.

Regarding `O=C1O[C@H]2[C@@H]3OC(=O)c4cc(O)c(O)c(O)c4-c4c(O)c(O)c5oc(=O)c6c(c(O)c(O)c7oc(=O)c4c5c76)-c4c(cc(O)c(O)c4O)C(=O)OC[C@H]3OC(O)[C@@H]2OC(=O)c2cc(O)c(O)c(O)c2-c2c1cc(O)c(O)c2O` (mixture of isomers) [Punicalagin], in assay [1] (setting [3]), the IC50 was 0.06 µM.

With `O=C(O[C@H]1[C@@H]2OC(=O)c3cc(O)c(O)c(O)c3-c3c4cc(c(O)c3O)Oc3c(cc(O)c(O)c3O)C(=O)O[C@H]3C(O)O[C@@H]5COC(=O)c6cc(O)c(O)c(O)c6-c6c(cc(c(O)c6O)Oc6c(cc(O)c(O)c6O)C(=O)O[C@H]1C(O)O[C@@H]2COC4=O)C(=O)O[C@H]5[C@@H]3OC(=O)c1cc(O)c(O)c(O)c1)c1cc(O)c(O)c(O)c1` (stereo partly shown) [Oenothein B], the “Hemolysis Inhibition Inhibitory Power” value in assay [1] is reported as 4.4. In addition, the IC50 in assay [1] (setting [4]) amounted to 0.055 ± 0.0021 µM. Besides, the IC50 in assay [1] (setting [3]) is 0.06 µM. For the same molecule, the “Inhibitor class in hemolysis inhibition assay” value (shortened to “Inhibitor class”) in assay [1] (setting [5]) is “moderate (moderate inhibitors (IC50 40–90 nM))”. Also, in assay [2], the “Minimum Precipitating Concentration” value is 510 µM, the “Precipitation Relative Power” value came out at 1.6 and the “Fold higher precipitating concentration compared to hemolysis IC50” value (from here on “Fold higher precipitating concentration”) was determined as 9300 fold.

Regarding `O=C(O[C@@H]1COC(=O)c2cc(O)c(O)c(O)c2-c2c(cc(O)c(O)c2O)C(=O)O[C@H]1[C@@H]1OC(=O)c2cc(O)c(O)c(O)c2-c2c(O)c(O)c(O)c3c2C(=O)O[C@H]1[C@@H]3O)c1cc(O)c(O)c(O)c1` [Casuarinin], the IC50 in assay [1] (setting [3]) is 0.09 µM.

For the molecule `O=C1OC[C@H]2OC(O)[C@@H]3OC(=O)c4cc(O)c(O)c(O)c4-c4c(cc(O)c(O)c4O)C(=O)O[C@H]3[C@@H]2OC(=O)c2cc(O)c(O)c(O)c2-c2c1cc(O)c(O)c2O` (stereo partly shown) [Pedunculagin], in assay [1] (setting [3]), the IC50 was greater than 0.1 µM.

Take `O=C(O[C@@H]1O[C@@H]2COC(=O)c3cc(O)c(O)c(O)c3-c3c(cc(O)c(O)c3O)C(=O)O[C@H]2[C@@H]2OC(=O)c3cc(O)c(O)c(O)c3-c3c(cc(O)c(O)c3O)C(=O)O[C@@H]12)c1cc(O)c(O)c(O)c1` [Casuarictin]: the IC50 in assay [1] (setting [3]) is 0.04 µM.

Take `O=C(O[C@H]1[C@@H]2OC(=O)c3cc(O)c(O)c(O)c3-c3c(cc(O)c(O)c3O)C(=O)OC[C@H]2OC(O)[C@@H]1OC(=O)c1cc(O)c(O)c(O)c1)c1cc(O)c(O)c(O)c1` (stereo partly shown) [Tellimagrandin I]: the IC50 in assay [1] (setting [3]) was 0.06 µM.

Consider `O=C(OC1OC2COC(=O)c3cc(O)c(O)c(O)c3-c3c(cc(O)c(O)c3O)C(=O)OC2C2OC(=O)c3cc(O)c(O)c(O)c3-c3c(cc(O)c(O)c3O)C(=O)OC12)c1cc(O)c(O)c(Oc2c(O)c(O)c(O)c3c2C(=O)OC2C(COC(=O)c4cc(O)c(O)c(O)c4-3)OC(OC(=O)c3cc(O)c(O)c(O)c3)C3OC(=O)c4cc(O)c(O)c(O)c4-c4c(cc(O)c(O)c4O)C(=O)OC23)c1` (stereo not shown) [Sanguiin H-6], for which the IC50 in assay [1] (setting [6]) is 0.02 µM.

`O=C(OC1OC2COC(=O)c3cc(O)c(O)c(O)c3-c3c(cc(O)c(O)c3O)C(=O)OC2C2OC(=O)c3cc(O)c(O)c(O)c3-c3c(cc(O)c(O)c3O)C(=O)OC12)c1cc(O)c(O)c(Oc2c(O)c(O)c(O)c3c2C(=O)OC2C(COC(=O)c4cc(O)c(O)c(O)c4-3)OC(OC(=O)c3cc(O)c(O)c(Oc4c(O)c(O)c(O)c5c4C(=O)OC4C(COC(=O)c6cc(O)c(O)c(O)c6-5)OC(OC(=O)c5cc(O)c(O)c(O)c5)C5OC(=O)c6cc(O)c(O)c(O)c6-c6c(cc(O)c(O)c6O)C(=O)OC45)c3)C3OC(=O)c4cc(O)c(O)c(O)c4-c4c(cc(O)c(O)c4O)C(=O)OC23)c1` (stereo not shown) [Lambertianin C]: the concentration for half-maximal inhibition (IC50) in assay [1] (setting [6]) is 0.02 µM.

With `O=C(O[C@@H]1O[C@@H]2COC(=O)c3cc(O)c(O)c(O)c3-c3c(cc(O)c(O)c3O)C(=O)O[C@H]2[C@H](OC(=O)c2cc(O)c(O)c(O)c2)[C@H]1OC(=O)c1cc(O)c(O)c(O)c1)c1cc(O)c(O)c(Oc2c(C(=O)O[C@H]3O[C@@H]4COC(=O)c5cc(O)c(O)c(O)c5-c5c(cc(O)c(O)c5O)C(=O)O[C@H]4[C@@H]4OC(=O)c5cc(O)c(O)c(O)c5-c5c(cc(O)c(O)c5O)C(=O)O[C@@H]34)cc(O)c(O)c2O)c1` [Gemin A], the “Hemolysis Inhibition Inhibitory Power” value in assay [1] is 5.9. In assay [1] (setting [4]), this molecule returned an IC50 of 0.041 ± 0.001 µM. In assay [1] (setting [3]), the IC50 was 0.02 µM. Also, in assay [1] (setting [5]), the “Inhibitor class” value is recorded as “potent (potent inhibitors (IC50 10–30 nM))”. Further, in assay [2], the “Minimum Precipitating Concentration” value worked out at 6.2 µM, the “Precipitation Relative Power” value amounted to 130 and the “Fold higher precipitating concentration” value amounted to 150 fold.

For the molecule `O=C(OC1OC2COC(=O)c3cc(O)c(O)c(O)c3-c3c(cc(O)c(O)c3O)C(=O)OC2C2OC(=O)c3cc(O)c(O)c(O)c3-c3c(cc(O)c(O)c3O)C(=O)OC12)c1cc(O)c(O)c(Oc2c(C(=O)OC3OC4COC(=O)c5cc(O)c(O)c(O)c5-c5c(cc(O)c(O)c5O)C(=O)OC4C4OC(=O)c5cc(O)c(O)c(O)c5-c5c(cc(O)c(O)c5O)C(=O)OC34)cc(O)c(O)c2O)c1` (stereo not shown) [Agrimoniin], the IC50 in assay [1] (setting [6]) was 0.03 µM.

As for `O=C1OCC2OC(=O)c3cc(O)c(O)c(O)c3-c3c(O)c(O)c(O)c4c3C(=O)OC(C2OC(=O)c2cc(O)c(O)c(O)c2-c2c1cc(O)c(O)c2O)C1OC(=O)c2c-4c(O)c(O)c(O)c2C1O` (stereo not shown) [Vescalagin], the IC50 in assay [1] (setting [4]) is 0.24 ± 0.0053 µM. Moreover, in assay [1] (setting [3]), the IC50 was greater than 0.1 µM. Also, the “Inhibitor class” value in assay [1] (setting [5]) is given as “weak (negative or weak inhibitors (IC50 ≥ 100 nM))”. Further, the “Hemolysis Inhibition Inhibitory Power” value in assay [1] (relative to IC50 of vescalagin (=1)) worked out at 1. Moreover, in assay [2], the “Minimum Precipitating Concentration” value is 820 µM, the “Precipitation Relative Power” value is listed as 1 and the “Fold higher precipitating concentration” value was found to be 3400 fold.

Consider `O=C1O[C@H]2[C@@H]3OC(=O)c4cc(O)c(O)c(O)c4-c4c(cc(O)c(O)c4O)C(=O)OC[C@H]2O[C@@H](OC(=O)c2cc(O)c(O)c(O)c2)[C@@H]3OC(=O)c2cc(O)c(O)c3c2[C@@H]2C1=CC(=O)[C@](O)(O3)C2(O)O` [Geraniin], for which the IC50 in assay [1] (setting [3]) was 0.1 µM.

For the molecule `O=C(OC1O[C@@H]2COC(=O)c3cc(O)c(O)c(O)c3-c3c(cc(O)c(O)c3O)C(=O)O[C@H]2[C@H](OC(=O)c2cc(O)c(O)c(O)c2)[C@H]1OC(=O)c1cc(O)c(O)c(O)c1)c1cc(O)c(O)c(O)c1` (stereo partly shown) [Tellimagrandin II], in assay [1], the “Inhibitor class” value is reported as “potent (key: negative or weak inhibitors (IC50 ≥ 100 nM); moderate inhibitors (IC50 40–90 nM); potent inhibitors (IC50 10–30 nM))”. Besides, the IC50 in assay [1] (setting [3]) is 0.01 µM.

With `O=C(O)C[C@@H]1C(=O)O[C@H]2[C@@H]3OC(=O)c4cc(O)c(O)c(O)c4-c4c(cc(O)c(O)c4O)C(=O)OC[C@H]2O[C@@H](OC(=O)c2cc(O)c(O)c(O)c2)[C@@H]3OC(=O)c2cc(O)c(O)c3c2[C@H]1[C@H](O)C(=O)O3` [Chebulagic acid], in assay [1] (setting [3]), the IC50 is greater than 0.1 µM.

As to `O=C1OC[C@H]2OC(=O)c3cc(O)c(O)c(O)c3-c3c(O)c(O)c(O)c4c3C(=O)O[C@H]([C@H]3OC(=O)c5c-4c(O)c(O)c(O)c5[C@H]3O)[C@@H]2OC(=O)c2cc(O)c(O)c(O)c2-c2c1cc(O)c(O)c2O` [Castalagin], in assay [1] (setting [3]), the IC50 was 0.08 µM.
